# Assay results reported in patent US20250082781A1, “METHODS OF LOWERING BLOOD GLUCOSE AND TREATING TYPE 2 DIABETES BY ACTIVATION OF PDE4D3” (Salk Institute for Biological Studies, priority 2021, published 2025).
# Experiments:
# [1] = test system: human SVF-derived adipocytes; assay: In vitro lipolysis assay (FFA release), human SVF-derived adipocytes; assay type: cell-based
# Description: Differentiation of pre-adipocytes were based on previously published methods (Bunnell et al., 2008). Briefly, 3T3-L1 pre-adipocytes were grown to full confluence in DMEM, 10% FBS (GemCell, 100-500), 10 mM HEPES and antibiotic-antimycotic (full growth media). 2 days later, differentiation was induced by replacing the media with 1 μM dexamethasone, 1 μM rosiglitazone, 500 μM IBMX and 5 μg/ml insulin in full growth media 2 days later after reaching full confluence. Two days later media was replaced by differentiation induction media with 1 μM rosiglitazone and 5 μg/ml insulin for 4 days with media change after 2 days. Cells were kept in maintenance medium (full growth media with 5 μg/ml insulin) for 4 more days for full differentiation. For differentiation of mouse SVF derived adipocytes, the protocol was same except DMEM/F12 (10565018, ThermoFisher) was used as base media and initial differentiation induction media was kept for 3 days. For differentiation of human subcutaneous adipocytes, protocol and media from the manufacturer (C-12735, C-39437, Promocell) were used. […]
# For in vitro lipolysis assay, cells were washed with PBS and media were changed to full growth media 1 day before experiment. […] FFAs were measured in the media using a commercial kit (Wako-NEFAHR2) and normalized to protein concentration. […] FFAs were measured and normalized by the explant weights.
# 3T3-L1 adipocytes = assay: In vitro lipolysis assay (FFA release), 3T3-L1 adipocytes; assay type: cell-based
# Description: Differentiation of pre-adipocytes were based on previously published methods (Bunnell et al., 2008). Briefly, 3T3-L1 pre-adipocytes were grown to full confluence in DMEM, 10% FBS (GemCell, 100-500), 10 mM HEPES and antibiotic-antimycotic (full growth media). 2 days later, differentiation was induced by replacing the media with 1 μM dexamethasone, 1 μM rosiglitazone, 500 μM IBMX and 5 μg/ml insulin in full growth media 2 days later after reaching full confluence. Two days later media was replaced by differentiation induction media with 1 μM rosiglitazone and 5 μg/ml insulin for 4 days with media change after 2 days. Cells were kept in maintenance medium (full growth media with 5 μg/ml insulin) for 4 more days for full differentiation. For differentiation of mouse SVF derived adipocytes, the protocol was same except DMEM/F12 (10565018, ThermoFisher) was used as base media and initial differentiation induction media was kept for 3 days. For differentiation of human subcutaneous adipocytes, protocol and media from the manufacturer (C-12735, C-39437, Promocell) were used. Dexamethasone was omitted from the media in the last 3 days before performing experiments. Both mouse and human SVF derived adipocytes were differentiated in collagen coated plates (A1142802, ThermoFisher).
# (§1) For in vitro lipolysis assay, cells were washed with PBS and media were changed to full growth media 1 day before experiment. Cells were serum starved for 2 h and placed in KRBH buffer (30 mM HEPES, 120 mM NaCl, 4 mM KH2PO4, 1 mM MgSO4, 0.75 mM CaCl2), and 10 mM NaHCO3) with 2% fatty acid free BSA and 5 mM glucose. FGF1 was added 10 min before induction of lipolysis with 100 nM isoprotenol (ISO). Inhibitors were added 30 min prior to FGF1 treatment unless otherwise noted. Media were collected and cells were lysed in protein extraction buffer. FFAs were measured in the media using a commercial kit (Wako-NEFAHR2) and normalized to protein concentration. For ex vivo lipolysis, the assay was modified from a published protocol (Funicello et al., 2007). Briefly, approximately 0.1 gram of adipose tissue was excised, weighed and kept in cold PBS until treatment and control tissues were collected. Tissues were cut into small pieces and incubated in same KRBH buffer as described above for 4 h. FFAs were measured and normalized by the explant weights.
# adipose tissue explants = assay: Ex vivo lipolysis in adipose explants of treated mice; set-up: species or system mouse
# Description: as §1
# PDE4D = assay: Western blot of PDE4D phosphorylation in 3T3-L1 adipocytes; assay type: cell-based
# Description: Tissues were lysed in cold lysis buffer (50 mM Tris, pH 7.5, 150 mM NaCl, 1% NP40, 0.5% NaDoc, 0.1% SDS, 5% glycerol, 1 mM EDTA, protease and phosphatase inhibitors (complete and PhosSTOP (Roche)) by homogenization by bead-beater for 30 s. Samples were cleared for 10 min at 18,000 g at 4° C. and the middle clear phase was transferred to new tubes. A second 30 min centrifugation was performed and the middle clear phase was transferred to new tubes. Five ul protein extract was used for BCA assay to determine protein concentration. Samples were boiled in Laemmli buffer. SDS-PAGE and blotting were performed using gradient gels and Trans-Blot Turbo Transfer System (Bio-Rad). Antibodies used were PDE4D (12918-1-AP, Proteintech), pHSL-660 (4126S, Cell signaling), HSL (4107S, Cell Signaling), tubulin (CP06, Millipore Sigma), and GFP (A01388, GenScript). PDE4D3-pS44 phospho-specific antibody was generated using PDE4D3-S44 FRRHpSWISFDVDNGTSAGR peptide (SEQ ID NO: 20) (Mackenzie et al., 2002) by Pocono Rabbit Farm, using 70-day rabbit antibody production protocol and purified via affinity purification. Primary antibodies were incubated for 2 h at room temperature (RT) or overnight (ON) at 4° C. Blots were developed using SuperSignal West Pico PLUS Chemiluminescent Substrate (ThermoFisher Scientific) and imaged with BioRad GelDoc system.
substance,measurement,setting,value
"FGF1: Recombinant fibroblast growth factor 1 protein, dissolved in PBS, injected subcutaneously",anti-lipolytic activity of FGF1 with selective inhibitors of PDE4,[1]; FGF1 100 ng/ml with roflumilast 2 μM,blocked by selective inhibitors of PDE4
same,basal and isoproterenol-induced lipolysis,"[1]; FGF1 100 ng/ml, 10 min before ISO 1 nM",acutely suppressed basal and isoproterenol-induced lipolysis
same,FGF1 suppression of lipolysis under FGFR1 inhibition,3T3-L1 adipocytes; FGF1 100 ng/ml with FGFR1 inhibitor PD 173074 1 μM,blocked by FGFR1 inhibition
same,FGF1-induced suppression of lipolysis under PDE3B inhibition,3T3-L1 adipocytes; FGF1 100 ng/ml with PDE3 inhibitors (cilostamide or quazinone 10 μM),did not impair
same,anti-lipolytic activity of FGF1 with selective inhibitors of PDE4,3T3-L1 adipocytes; FGF1 100 ng/ml with roflumilast 2 μM or cilomulast 10 μM,blocked by selective inhibitors of PDE4
same,isoproterenol-induced lipolysis,"3T3-L1 adipocytes; dose response of FGF1, ISO 100 nM, 4 h",dose-dependently suppressed isoproterenol-induced lipolysis
same,lipolysis in brown adipose tissue,"adipose tissue explants; BAT explants, chow-fed mice, 6 h after FGF1 0.5 mg/kg",did not affect lipolysis in brown adipose tissue
same,FGF1 suppression of lipolysis in adipose explants under PDE4 inhibition,adipose tissue explants; DIO mice gavaged with PDE4 inhibitor 1 h prior to FGF1 injection,blocked the ability of FGF1 to suppress lipolysis
same,ex vivo lipolysis,"adipose tissue explants; gWAT and iWAT explants, DIO adR1WT vs adR1KO, 2 h after FGF1 0.5 mg/kg",suppressed
same,FGF1-induced phosphorylation of PDE4D3 in the S44A mutant,PDE4D; 3T3-L1 adipocytes infected with adAAV PDE4D3 S44A,lost
same,S44 phosphorylation of PDE4D3,"PDE4D; 3T3-L1 cells overexpressing PDE4D3, absence and presence of isoproterenol",increased S44 phosphorylation
same,PDE4D phosphorylation,"PDE4D; isoproterenol-stimulated, FGF1 co-treatment 100 ng/ml",increased both the extent and duration of PDE4D phosphorylation
